Measurements from patent publication US5286492A, “Method of treatment of Heliobacter pylori infections with triclosan” (Reckitt & Colman Products Limited, priority 1990, dated 1994).
In brackets after ≈: the same amount, converted by molar mass. Read-outs that look alike come from different tables or passages of the source.

What was measured:
Helicobacter pylori [1] = assay: MIC50/MIC90 versus Helicobacter pylori by agar dilution technique at neutral pH; assay type: cell-based; conditions: for activity compared with the twelve agents tested: Table 1
Description: (§1) The in vitro activities of a range of antimicrobial compounds versus Helicobacter pylori were determined by methods based on those of McNulty et al (Antimicrobial Agents and Chemotherapy, 28, 837-838, 1985). The Minimum Inhibitory concentrations for 50% and 90% of the strains used (MIC50 and MIC90), versus each antimicrobial were determined using an agar dilution technique.
(§2) The MIC of an antimicrobial agent was defined as that concentration (in mg per liter of agar) at which less than 1 in 10^5 organisms produced visible colonies.
(§3) Helicobacter pylori strains were isolated from gastric antrum biopsy specimens taken at routine endoscopy during investigation of upper gastrointestinal symptoms. They were identified as Helicobacter pylori by their colonial morphology, gram stain appearance and positive rapid urease test. The organisms were stored in liquid nitrogen before use and subcultured for testing by 48 hour incubation, at 37° C. under 10% carbon dioxide in Tryptone Soya Broth (TSB, OXOID, UK) plus 5% horse serum (Tissue Culture Services, UK).
The first test procedure determined the effectiveness of a range of antimicrobial substances versus 16 to 18 strains of Helicobacter pylori at neutral pH. Freshly prepared Isosensitest Agar of pH 7.2 (Oxoid, UK) supplemented with 10% saponinlysed horse blood was used to prepare a dilution series of each antimicrobial from which agar plates were produced. A multipoint inoculator (Denley-Tech, UK) was used to deliver 1 µl of undiluted test culture to the surface of each plate in the dilution series to give approximately 10^6 cfu/spot. The plates were incubated for three days at 37° C. in a microaerobic atmosphere of 6% oxygen and 10% carbon dioxide.

Helicobacter pylori [2] = assay: Effect of pH (5 to 8) on activity (MIC90) against Helicobacter pylori, agar dilution; assay type: cell-based; conditions: for MIC90 / MIC: Helicobacter pylori; for activity compared among the three agents (in words) / effect of pH on activity (in words): pH range 5 to 8
Description: as §1, §2, §3
The three selected agents were triclosan, clioquinol (5-chloro-7-iodo-8-hydroxy-quinolone) and cetalkonium chloride.
In the test procedure, Sorensens phosphate buffer (0.1M) was used to prepare the range of pH values 5, 5.5, 6, 6.5, 7, 7.5 and 8. Oxoid Columbia Agar Base (CM331) was added and the media autoclaved. After cooling to 50° C., 7% Lysed Horse Blood (Tissue Culture Services, UK) was added and media at each pH was used to prepare a range of concentrations of the three selected test antimicrobial agents. To ensure pH stability, a surface pH electrode was used to monitor control plates before, during and at the end of the three day microaerobic incubation.
The MIC90 was determined for each at each pH as described in the previous test procedure.

Helicobacter pylori [3] = conditions: cited from earlier work
[4] = test system: Helicobacter pylori infection; conditions: by twelve months post therapy; cited from earlier work
[5] = Helicobacter pylori, 72 h, eighteen isolates, neutral pH (agar pH 7.2), read-out: MIC50
[6] = Helicobacter pylori, eighteen isolates, neutral pH (agar pH 7.2), read-out: MIC Range
[7] = Helicobacter pylori, pH 7.2, read-out: MIC Range
[8] = Helicobacter pylori, eighteen isolates, neutral pH (agar pH 7.2), read-out: MIC90
[9] = pH 5.0, sixteen isolates (triclosan, clioquinol) or eighteen (cetalkonium chloride), read-out: MIC90
[10] = pH 5.0, sixteen isolates (triclosan, clioquinol) or eighteen (cetalkonium chloride), read-out: MIC Range
[11] = pH 5.5, sixteen isolates (triclosan, clioquinol) or eighteen (cetalkonium chloride), read-out: MIC90
[12] = pH 5.5, sixteen isolates (triclosan, clioquinol) or eighteen (cetalkonium chloride), read-out: MIC Range
[13] = pH 6.0, sixteen isolates (triclosan, clioquinol) or eighteen (cetalkonium chloride), read-out: MIC90
[14] = pH 6.0, sixteen isolates (triclosan, clioquinol) or eighteen (cetalkonium chloride), read-out: MIC Range
[15] = pH 6.5, sixteen isolates (triclosan, clioquinol) or eighteen (cetalkonium chloride), read-out: MIC90
[16] = pH 7.0, sixteen isolates (triclosan, clioquinol) or eighteen (cetalkonium chloride), read-out: MIC90
[17] = pH 7.0, sixteen isolates (triclosan, clioquinol) or eighteen (cetalkonium chloride), read-out: MIC Range
[18] = pH 7.5, sixteen isolates (triclosan, clioquinol) or eighteen (cetalkonium chloride), read-out: MIC90
[19] = pH 7.5, sixteen isolates (triclosan, clioquinol) or eighteen (cetalkonium chloride), read-out: MIC Range
[20] = pH 8.0, sixteen isolates (triclosan, clioquinol) or eighteen (cetalkonium chloride), read-out: MIC90
[21] = eighteen isolates, neutral pH (agar pH 7.2)

CCCCCCc1ccc(O)cc1O [4-Hexylresorcinol]
MIC50 (Helicobacter pylori [1]; [5]): 32 µg/mL (≈ 165 µM) | MIC90 (Helicobacter pylori [1]; Helicobacter pylori, pH 7.2): 32 µg/mL (≈ 165 µM) | MIC (Helicobacter pylori [1]; [6]): 16 to 32 µg/mL (≈ 82.4 to 165 µM)

Oc1cc(Cl)ccc1Oc1ccc(Cl)cc1Cl [Triclosan, 2-hydroxy-4,2',4'-trichloro-diphenyl ether]
MIC50 (Helicobacter pylori [1]; Helicobacter pylori, 72 h, pH 7.2): 1 µg/mL (≈ 3.45 µM) | MIC90 (Helicobacter pylori [1]; Helicobacter pylori, pH 7.2): 8 µg/mL (≈ 27.6 µM) | MIC (Helicobacter pylori [1]; [7]): 0.25 to 16 µg/mL (≈ 0.863 to 55.3 µM) | activity compared with the twelve agents tested (Helicobacter pylori [1]; neutral pH): demonstrated the greatest activity of the twelve antimicrobial agents tested | MIC90 (Helicobacter pylori [2]; pH 5): 0.25 µg/mL (≈ 0.863 µM) | MIC (Helicobacter pylori [2]; pH 5, read-out: MIC Range): 0.06 to 0.25 µg/mL (≈ 0.207 to 0.863 µM) | MIC90 (Helicobacter pylori [2]; pH 5.5): 1 µg/mL (≈ 3.45 µM) | MIC (Helicobacter pylori [2]; pH 5.5, read-out: MIC Range): 0.06 to 1 µg/mL (≈ 0.207 to 3.45 µM) | MIC90 (Helicobacter pylori [2]; pH 6): 1 µg/mL (≈ 3.45 µM) | MIC (Helicobacter pylori [2]; pH 6, read-out: MIC Range): 0.12 to 2 µg/mL (≈ 0.414 to 6.91 µM) | MIC90 (Helicobacter pylori [2]; pH 6.5): 2 µg/mL (≈ 6.91 µM) | MIC (Helicobacter pylori [2]; pH 6.5, read-out: MIC Range): 0.12 to 4 µg/mL (≈ 0.414 to 13.8 µM) | MIC90 (Helicobacter pylori [2]; pH 7): 2 µg/mL (≈ 6.91 µM) | MIC (Helicobacter pylori [2]; pH 7, read-out: MIC Range): 0.06 to 4 µg/mL (≈ 0.207 to 13.8 µM) | MIC90 (Helicobacter pylori [2]; pH 7.5): 2 µg/mL (≈ 6.91 µM) | MIC (Helicobacter pylori [2]; pH 7.5, read-out: MIC Range): 0.06 to 4 µg/mL (≈ 0.207 to 13.8 µM) | MIC90 (Helicobacter pylori [2]; pH 8): 2 µg/mL (≈ 6.91 µM) | MIC (Helicobacter pylori [2]; pH 8, read-out: MIC Range): 0.06 to 2 µg/mL (≈ 0.207 to 6.91 µM) | activity compared among the three agents (in words) (Helicobacter pylori [2]): demonstrated the greatest activity | effect of pH on activity (in words) (Helicobacter pylori [2]): low at pH 5.0 and unaffected in the range pH 5.5 to 8.0

O=C([O-])CC(O)(CC(=O)[O-])C(=O)[O-].O=C([O-])CC(O)(CC(=O)[O-])C(=O)[O-].[Bi+3].[K+].[K+].[K+] [bismuth subcitrate]
reported MIC90 (Helicobacter pylori [3]; neutral pH): 16 mg/L

Cc1ncc([N+](=O)[O-])n1CCO [metronidazole]
distribution of MICs (previously reported) (Helicobacter pylori [3]): bimodal distribution

N=C(NCCCCCCNC(=N)NC(=N)Nc1ccc(Cl)cc1)NC(=N)Nc1ccc(Cl)cc1 [Hibitane]
MIC50 (Helicobacter pylori [1]; [5]): 32 µg/mL (≈ 63.3 µM) | MIC90 (Helicobacter pylori [1]; [8]): 32 µg/mL (≈ 63.3 µM) | MIC (Helicobacter pylori [1]; [6]): 16 to 32 µg/mL (≈ 31.7 to 63.3 µM)

CCS(=O)(=O)CCn1c([N+](=O)[O-])cnc1C [Tinidazole]
MIC50 (Helicobacter pylori [1]; [5]): 0.5 µg/mL (≈ 2.02 µM) | MIC (Helicobacter pylori [1]; Helicobacter pylori, 72 h, fifteen of eighteen isolates, neutral pH, read-out: MIC of sensitive isolates): < 2 µg/mL | MIC (Helicobacter pylori [1]; Helicobacter pylori, 72 h, three of eighteen strains, neutral pH, read-out: MIC of strains demonstrating evidence of resistance): 16 µg/mL | MIC90 (Helicobacter pylori [1]; [8]): 16 µg/mL (≈ 64.7 µM) | MIC (Helicobacter pylori [1]; [6]): 0.25 to 16 µg/mL (≈ 1.01 to 64.7 µM) | distribution of MICs (Helicobacter pylori [1]; eighteen isolates, neutral pH): bimodal distribution of MICs | activity compared with the twelve agents tested (Helicobacter pylori [1]; neutral pH): demonstrated the greatest activity of the twelve antimicrobial agents tested

Oc1ccc(Cl)cc1Cc1cc(Cl)ccc1O [Dichlorphen]
MIC50 (Helicobacter pylori [1]; [5]): 16 µg/mL (≈ 59.5 µM) | MIC90 (Helicobacter pylori [1]; [8]): 16 µg/mL (≈ 59.5 µM) | MIC (Helicobacter pylori [1]; [6]): 8 to 16 µg/mL (≈ 29.7 to 59.5 µM)

CCCCCCCCCCCCCCCC[N+](C)(C)Cc1ccccc1 [Cetalkonium Cl]
MIC50 (Helicobacter pylori [1]; [5]): 2 µg/mL | MIC (Helicobacter pylori [1]; [7]): 2 to 4 µg/mL | MIC90 (Helicobacter pylori [1]; [8]): 4 µg/mL | MIC (Helicobacter pylori [2]; pH 8, read-out: MIC Range): 1 to 8 µg/mL | MIC90 (Helicobacter pylori [2]; [9]): 1 µg/mL | MIC (Helicobacter pylori [2]; [10]): 0.5 to 2 µg/mL | MIC90 (Helicobacter pylori [2]; [11]): 2 µg/mL | MIC (Helicobacter pylori [2]; [12]): 0.5 to 2 µg/mL | MIC90 (Helicobacter pylori [2]; [13]): 2 µg/mL | MIC (Helicobacter pylori [2]; [14]): 1 to 4 µg/mL | MIC90 (Helicobacter pylori [2]; [15]): 4 µg/mL | MIC (Helicobacter pylori [2]; pH 6.5, sixteen isolates (triclosan, clioquinol) or eighteen (cetalkonium chloride), read-out: MIC Range): 2 to 4 µg/mL | MIC90 (Helicobacter pylori [2]; [16]): 4 µg/mL | MIC (Helicobacter pylori [2]; [17]): 2 to 4 µg/mL | MIC90 (Helicobacter pylori [2]; [18]): 4 µg/mL | MIC (Helicobacter pylori [2]; [19]): 1 to 4 µg/mL | MIC90 (Helicobacter pylori [2]; [20]): 2 µg/mL | activity compared among the three agents (in words) (Helicobacter pylori [2]): demonstrated similar MIC90 activity profiles across the pH range | effect of pH on activity (in words) (Helicobacter pylori [2]): largely unaffected by pH over the range 5 to 8

Cc1cc(O)cc(C)c1Cl [PCMX]
MIC50 (Helicobacter pylori [1]; [5]): 32 µg/mL (≈ 204 µM) | MIC90 (Helicobacter pylori [1]; [8]): 64 µg/mL (≈ 409 µM) | MIC (Helicobacter pylori [1]; [6]): 8 to 64 µg/mL (≈ 51.1 to 409 µM)

COc1ccccc1O [Guaiacol]
MIC50 (Helicobacter pylori [1]; [5]): 64 µg/mL (≈ 516 µM) | MIC90 (Helicobacter pylori [1]; [8]): 64 µg/mL (≈ 516 µM) | MIC (Helicobacter pylori [1]; [6]): 32 to 128 µg/mL (≈ 258 to 1030 µM)

CCCCC(CC)CN1CN(CC(CC)CCCC)CC(C)(N)C1 (stereo not drawn) [Hexetidine]
MIC50 (Helicobacter pylori [1]; [5]): 16 µg/mL (≈ 47.1 µM) | MIC90 (Helicobacter pylori [1]; [8]): 16 µg/mL (≈ 47.1 µM) | MIC (Helicobacter pylori [1]; [6]): 8 to 16 µg/mL (≈ 23.6 to 47.1 µM)

bismuth
recurrence of the infection [4]: ~100%

Halquinol
MIC50 (Helicobacter pylori [1]; [21]): 16 µg/mL | MIC90 (Helicobacter pylori [1]; [21]): 16 µg/mL | MIC Range (Helicobacter pylori [1]; [21]): 16 mg/L

Oc1c(I)cc(Cl)c2cccnc12 [Clioquinol, 5-chloro-7-iodo-8-hydroxy-quinolone]
MIC50 (Helicobacter pylori [1]; [5]): 16 µg/mL (≈ 52.4 µM) | MIC (Helicobacter pylori [1]; [7]): 8 to 16 µg/mL (≈ 26.2 to 52.4 µM) | MIC90 (Helicobacter pylori [1]; [8]): 16 µg/mL (≈ 52.4 µM) | MIC (Helicobacter pylori [2]; pH 6.5, read-out: MIC Range): 0.5 to 16 µg/mL (≈ 1.64 to 52.4 µM) | MIC (Helicobacter pylori [2]; pH 8, read-out: MIC Range): 0.5 to 2 µg/mL (≈ 1.64 to 6.55 µM) | MIC90 (Helicobacter pylori [2]; [9]): 2 µg/mL (≈ 6.55 µM) | MIC (Helicobacter pylori [2]; [10]): 0.5 to 4 µg/mL (≈ 1.64 to 13.1 µM) | MIC90 (Helicobacter pylori [2]; [11]): 8 µg/mL (≈ 26.2 µM) | MIC (Helicobacter pylori [2]; [12]): 2 to 8 µg/mL (≈ 6.55 to 26.2 µM) | MIC90 (Helicobacter pylori [2]; [13]): 8 µg/mL (≈ 26.2 µM) | MIC (Helicobacter pylori [2]; [14]): 2 to 8 µg/mL (≈ 6.55 to 26.2 µM) | MIC90 (Helicobacter pylori [2]; [15]): 8 µg/mL (≈ 26.2 µM) | MIC90 (Helicobacter pylori [2]; [16]): 2 µg/mL (≈ 6.55 µM) | MIC (Helicobacter pylori [2]; [17]): 0.5 to 4 µg/mL (≈ 1.64 to 13.1 µM) | MIC90 (Helicobacter pylori [2]; [18]): 2 µg/mL (≈ 6.55 µM) | MIC (Helicobacter pylori [2]; [19]): 0.5 to 4 µg/mL (≈ 1.64 to 13.1 µM) | MIC90 (Helicobacter pylori [2]; [20]): 1 µg/mL (≈ 3.27 µM)
